Data from the supplement of paper PMC10307832.

What was measured:
Assay in all cases: relative viability (nuclei count vs DMSO), 5 days (fraction); higher = more cells survive
Cediranib + Crizotinib = compound: COc1cc2c(Oc3ccc4[nH]c(C)cc4c3F)ncnc2cc1OCCCN1CCCC1 [Cediranib] + C[C@@H](Oc1cc(-c2cnn(C3CCNCC3)c2)cnc1N)c1c(Cl)ccc(F)c1Cl [Crizotinib] (partner 1 µM)
How it was run: (§1)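 The day after seeding in 1536-well plates, lung cancer cell lines were treated by pin tool with a single drug, or with a fixed anchor-drug dose together with five library-drug doses (not always all listed) in √10 steps. After 5 days, a combined fix-and-stain solution (final 0.05% Triton X-100, 1% formaldehyde, 1 ug/ml Hoechst) was added. Nuclei counted on 4× images gave relative viability as treated counts over vehicle counts, reported as the median of duplicate plates.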

Decitabine + Pictilisib = compound: Nc1ncn([C@H]2C[C@H](O)[C@@H](CO)O2)c(=O)n1 [Decitabine] + CS(=O)(=O)N1CCN(Cc2cc3nc(-c4cccc5[nH]ncc45)nc(N4CCOCC4)c3s2)CC1 [Pictilisib] (partner 1 µM)
How it was run: as §1

[1] = compound: O=C(C[C@H]1NCCC[C@@H]1O)Cn1cnc2cc(Br)c(Cl)cc2c1=O (racemic) [Halofuginone] + Cc1cc(Nc2cc(N3CCN(C)CC3)nc(Sc3ccc(NC(=O)C4CC4)cc3)n2)n[nH]1 [Tozasertib] (partner 0.1 µM)
How it was run: as §1

Decitabine + AZD7762 = compound: Nc1ncn([C@H]2C[C@H](O)[C@@H](CO)O2)c(=O)n1 [Decitabine] + NC(=O)Nc1cc(-c2cccc(F)c2)sc1C(=O)N[C@H]1CCCNC1 [AZD7762] (partner 0.2 µM)
How it was run: as §1

| Cell Line | relative viability (Cediranib + Crizotinib; first compound 0.04 µM) | relative viability (Cediranib + Crizotinib; first compound 0.1265 µM) | relative viability (Cediranib + Crizotinib; first compound 0.4 µM) | relative viability (Cediranib + Crizotinib; first compound 1.265 µM) | relative viability (Cediranib + Crizotinib; first compound 4 µM) | relative viability (Decitabine + Pictilisib; first compound 0.04 µM) | relative viability (Decitabine + Pictilisib; first compound 0.1265 µM) | relative viability (Decitabine + Pictilisib; first compound 0.4 µM) | relative viability (Decitabine + Pictilisib; first compound 1.265 µM) | relative viability (Decitabine + Pictilisib; first compound 4 µM) | relative viability ([1]; first compound 0.001 µM) | relative viability ([1]; first compound 0.003162 µM) | relative viability ([1]; first compound 0.01 µM) | relative viability ([1]; first compound 0.03162 µM) | relative viability ([1]; first compound 0.1 µM) | relative viability (Decitabine + AZD7762; first compound 0.04 µM) | relative viability (Decitabine + AZD7762; first compound 0.1265 µM) | relative viability (Decitabine + AZD7762; first compound 0.4 µM) | relative viability (Decitabine + AZD7762; first compound 1.265 µM) | relative viability (Decitabine + AZD7762; first compound 4 µM) |
| --- | --- | --- | --- | --- | --- | --- | --- | --- | --- | --- | --- | --- | --- | --- | --- | --- | --- | --- | --- | --- |
| NCI-H1650 | 1.29 | 1.05 | 0.794 | 0.953 | 0.879 | 0.445 | 0.595 | 0.272 | 0.47 | 0.399 | 0.559 | 0.384 | 0.357 | 0.29 | 0.192 |  |  |  |  |  |
| NCI-H1703 | 0.721 | 0.707 | 0.188 | 0.214 | 0.191 | 0.29 | 0.258 | 0.196 | 0.234 | 0.181 |  |  |  |  |  | 0.111 | 0.0883 | 0.132 | 0.152 | 0.102 |
| NCI-H1792 | 1.03 | 1.03 | 0.915 | 0.979 | 0.882 | 0.303 | 0.243 | 0.34 | 0.235 | 0.197 |  |  |  |  |  | 0.616 | 0.731 | 0.478 | 0.242 | 0.19 |
| NCI-H1793 |  |  |  |  |  | 0.308 | 0.351 | 0.245 | 0.302 | 0.224 | 0.418 | 0.359 | 0.276 | 0.34 | 0.226 | 0.37 | 0.591 | 0.258 | 0.154 | 0.169 |
| NCI-H2009 | 1.12 | 1.03 | 0.989 | 1.06 | 1.04 | 0.773 | 0.672 | 0.351 | 0.386 | 0.245 | 0.897 | 0.754 | 0.746 | 0.659 | 0.366 |  |  |  |  |  |
| NCI-H2023 | 0.579 | 0.703 | 0.489 | 0.575 | 0.588 | 0.244 | 0.252 | 0.174 | 0.142 | 0.143 | 0.46 | 0.294 | 0.399 | 0.178 | 0.134 |  |  |  |  |  |
| NCI-H2228 | 0.54 | 0.562 | 0.545 | 0.419 | 0.327 | 0.355 | 0.441 | 0.179 | 0.287 | 0.232 | 0.321 | 0.324 | 0.19 | 0.133 | 0.0815 |  |  |  |  |  |
| NCI-H2342 |  |  |  |  |  |  |  |  |  |  | 0.522 | 0.493 | 0.498 | 0.478 | 0.506 | 0.507 | 0.593 | 0.517 | 0.457 | 0.319 |
| SK-LU-1 | 0.973 | 0.853 | 0.781 | 0.897 | 0.983 | 0.53 | 0.447 | 0.306 | 0.365 | 0.282 | 0.367 | 0.381 | 0.34 | 0.313 | 0.171 |  |  |  |  |  |
| SK-MES-1 | 1.06 | 1.05 | 0.915 | 0.963 | 1.06 | 0.258 | 0.367 | 0.427 | 0.271 | 0.243 | 1.03 | 0.926 | 0.754 | 0.647 | 0.168 |  |  |  |  |  |
| SW 900 |  |  |  |  |  |  |  |  |  |  | 0.611 | 0.557 | 0.558 | 0.46 | 0.258 | 0.502 | 0.646 | 0.39 | 0.237 | 0.298 |
| SW 1573 | 0.833 | 0.764 | 0.726 | 0.717 | 0.889 | 0.535 | 0.425 | 0.491 | 0.279 | 0.202 | 0.242 | 0.192 | 0.111 | 0.129 | 0.121 |  |  |  |  |  |
